Test results reported in patent US6451544B2, “Identification of agents that protect against inflammatory injury to neurons” (Baylor College of Medicine, priority 1996, dated 2002).
Entries after “also recorded” stand apart in the source; their conditions may differ. Peptide text beside a SMILES is read from it.

Tests used:
[1] = test system: rat microglia stimulated with Aβ1-42; human microglia stimulated with fraction S5; assay: Drug blockade of Aβ induced neuron killing by rat and human microglia; assay type: cell-based; settings: vitamin E 100 μM, catalase 25 units/ml, glutathione 100 μM, L-NIO 10 μM, DPI 300 nM, glutamate antagonists 10 μM
Source text: A number of cytotoxic factors have been reported to participate in Aβ neurotoxicity, including radicals (Behl et al., 1994), nitric oxide (Meda et al., 1995), cytokines (Mrak et al., 1995), and NMDA-like molecules (Giulian et al., 1995a).

[2] = assay type: physicochemical
Description: Properties and sources of amyloid peptides. […] Solubility of peptides is described for chemically-defined culture media at 37° C.

[3] = test system: HEK cells expressing NMDA1b/2A; assay: NTox exposure of HEK cells expressing NMDA receptors (trypan blue); assay type: cell-based, human
Source text: FIG. 6A) Photomicrograph of trypan blue(+) control HEK cells exposed to NTox.
Presence of neurotoxic activity will be determined by reduction in cell number, changes in biochemical markers such as loss of cell metabolic function, release of intracellular material, penetration of impermeant dyes, such as and not limited to fluorescent nuclear dyes and trypan blue (FIG. 6), reduction of the number of neurons, loss of neurofilament or synaptophysin, release of lactate dehydrogenase, or other evidence of cell injury.

[4] = test system: microglia stimulated by Aβ1-42; assay: In vitro screening of drugs which inactivate microglia stimulated by Aβ1-42; assay type: cell-based; settings: mixed with Aβ peptides; for prevention of neurotoxic microglia, signal transduction inhibitors: test concentrations 0.01 to 100 μM
Source text: Such in vitro assays permit rapid screening of drugs with therapeutic potential for Alzheimer Disease.
Such in vitro assays permit rapid screening of drugs which serve as lead compounds for development of therapeutics for Alzheimer Disease.
Once activated by plaque components, microglia release neurotoxic agents. Although many drugs are known to suppress the immune system outside the brain, it is not known which drugs actually have the ability to inactivative plaque-stimulated microglia within the brain and thus prevent the immune-mediated damage caused by Alzheimer Disease. […] Activated microglia also require intracellular events signaled by signal transducers, to convert the plaque or Aβ complex formation with microglia into cellular events which lead to the production and release of neurotoxins including NTox. […] Thus, the use of the microglia-neuron assay systems allowed identification of specific drug families with value in the treatment of Alzheimer Disease.

neurons = assay: Neuroprotective effects of NTox-like compounds; assay type: cell-based
rat microglia = assay: Binding of Aβ peptide-coupled fluorescent microspheres to microglia; settings: 1 micron fluorescent microspheres
Description: Fluoresbrite carboxylate microspheres (YG 1.0 μm, Polysciences; 0.5 ml of a 2.5% suspension) were washed twice in 0.1 M carbonate buffer (pH 9.6) and three times in 0.02 M sodium phosphate (pH 4.5). Carbodiimide was then added dropwise to a final concentration of 1% and the suspension mixed for 4 hours at room temperature. Following 3 more washes in 0.02M sodium phosphate, the pellet was resuspended in 1.2 ml of 0.2 M borate buffer (pH 8.5) and 300 μg Aβ (or control peptide) and 5% DMSO added. After overnight mixing at room temperature, the microspheres were blocked by 1 M glycine (pH 8.0) for 30 minutes and washed in 10 mg/ml BSA in phosphate buffer.
To delineate further which portions of the Aβ peptide served as a microglial binding site, a variety of synthetic peptides coupled to 1 micron diameter microspheres was next compared.

brain neocortex = assay: Microsphere implants in brain neocortex; assay type: in vivo
Source text: FIGS. 7A, B, and C show SpheresAβ1-42 in vivo. Weeks after implantation of large microspheres (250 micron diameter) remain embedded within brain neocortex (FIG. 7A). […] Microglia were visualized by uptake of fluorescent labeled acetylated LDL, Dil-ac-LDL Bar=40 μm, FIG. 7A; 25 μm FIGS. 7B and C.
Data support histological changes.
In vivo binding, activation, and neurotoxicity assays involve infusion of a tagged plaque component coupled to a solid support such as microspheres (FIG. 7) into a mammalian brain. Following infusion of materials, a test compound may be co-injected into the brain intraventricularly or intracranially by cannula with delivery systems including syringes or implanted osmotic pumps. A test compound may also be delivered systemically by intraperitoneal, intravenous, intra-arterial, nasal, or oral routes. Evidence of immune activation of the brain by a plaque component may be monitored using histological, biochemical, or molecular methods such as quantitative reverse transcriptase polymerase chain reaction method to identify cell markers of immune responses including surface proteins, enzymes, or cytokines (FIG. 8). The production of neurotoxic activity may be assayed by histochemical (FIG. 7) or biochemical to identify cell markers of immune responses including injury or destruction of neurons. […]

[5] = test system: rat hippocampal cultures supplemented with microglia; assay: Neurotoxicity assay: hippocampal neuron cultures supplemented with microglia (induction of neurotoxic microglia); assay type: cell-based
Source text: Rat microglia were isolated from newborn animals using the method of Giulian and Baker, 1986, with recovery of >98% homogenous population monitored by binding the fluorescent probe acetylated low density lipoprotein labeled with 1,1′-dioctadecyl-3,3,3′,3′-tetramethyl-indo-carbocyanine [Dil-ac-LDL]). Amyloid proteins were isolated from AD neocortical gray matter laden with neuritic and core plaques with final separations involving a discontinuous sucrose gradient. […] Cultured neurons prepared from rat hippocampus consisted of process-bearing neurons (10-20% of total cell population) atop a bed of astroglia (>70%) mixed with microglia (5-10%). In order to eliminate microglia, cultures were exposed saporin (a ribosome-inactivating protein) coupled to acetylated LDL (ac-LDL) for 10 pg/ml for 18 hours. […] After 14 days in vitro, cultures (with a final concentration of 0.6% serum) were exposed to test substances in the presence or absence of exogenous microglia for 72 hours. […] Data were expressed as % mean survival expressed in terms of parallel untreated control cultures after scoring at least 8 randomly selected fields for each of 3 coverslips from at least 3 independent experiments. […]

microglia = assay: SpheresAβ1-42 binding to microglia; parameters: species or system rat; settings: for SpheresAβ1-42 binding to microglia in presence of GAGs or scavenger receptor ligands: heparin sulfate 50 μg/ml, dextran sulfate 500 μg/ml, ac-LDL 200 μg/ml
Description: (§1) Isolated microglia (1000 per mm^2 ) were placed atop 16 mm glass coverslips in 24-well culture plates. Each well then received 250,000 SpheresAβ1-42 or Spheresmal-BSA in the presence or absence of Aβ peptides, GAGs, or scavenger receptor ligands. Binding assays were carried out at 37° C. for 4 hours after which coverslips were dipped 10 times in phosphate buffer and fixed with 4% buffered paraformaldehyde. Microsphere adherence to cells was scored at 200 magnification with phase/fluorescence microscopy. Data, expressed as % inhibition of sphere binding, was calculated from total number of spheres per field noted for control cultures receiving spheres only. Values are based upon at least 3 coverslips from 2 independent experiments. Fluoresbrite carboxylate YG microspheres (1.0 micron diameters; 0.5 ml of a 2.5% suspension) were activated with 1% carbodiimide for 4 hr at room temperature. Washed spheres were resuspended in 0.2 M borate buffer (pH 8.5) in the presence of 300 μg Aβ or 400 μg BSA in 6% DMSO. After overnight mixing at room temperature, the spheres were washed extensively and blocked by 1 M glycine (pH 8.0) for 30 minutes. Maleylation of coupled BSA was carried out at room temperature by adding 1 M maleic anhdyride in acetonitrile at pH 9.0.

scavenger receptors = assay: Spheresmal-BSA binding to microglia; parameters: species or system rat
Description: as §1

[6] = trypsin 5000 units/ml 60 min, heparinase 2 x 0.01 units/ml, chondroitinase ABC 2 x 0.02 units/ml

NC(CCCP(=O)(O)O)C(=O)O (stereo not drawn) [AP5]
protection against microglia-mediated neuron killing [1]: prevented neuronal loss; also recorded: prevented neuron death

NC(CCCCCP(=O)(O)O)C(=O)O (stereo not drawn) [AP7]
protection against microglia-mediated neuron killing [1]: prevented neuronal loss; also recorded: blocked neuron death

CC(C)C[C@H](NC(=O)[C@H](CCCCN)NC(=O)[C@H](CCC(N)=O)NC(=O)[C@H](Cc1cnc[nH]1)NC(=O)[C@H](Cc1cnc[nH]1)NC(=O)[C@@H](N)C(C)C)C(=O)N[C@H](C(=O)N[C@@H](Cc1ccccc1)C(=O)N[C@@H](Cc1ccccc1)C(=O)N[C@@H](C)C(=O)N[C@@H](CCC(=O)O)C(=O)N[C@@H](CC(=O)O)C(=O)N[C@H](C(=O)NCC(=O)N[C@@H](CO)C(=O)N[C@@H](CC(N)=O)C(=O)N[C@@H](CCCCN)C(=O)O)C(C)C)C(C)C [Aβ12-28]
Solubility [2]: soluble

CC[C@H](C)[C@H](NC(=O)[C@H](C)NC(=O)CNC(=O)[C@H](CCCCN)NC(=O)[C@H](CC(N)=O)NC(=O)[C@H](CO)NC(=O)CNC(=O)[C@@H](NC(=O)[C@H](CC(=O)O)NC(=O)[C@H](CCC(=O)O)NC(=O)[C@H](C)NC(=O)[C@H](Cc1ccccc1)NC(=O)[C@H](Cc1ccccc1)NC(=O)[C@@H](NC(=O)[C@@H](N)CC(C)C)C(C)C)C(C)C)C(=O)N[C@H](C(=O)NCC(=O)N[C@@H](CC(C)C)C(=O)N[C@@H](CCSC)C(=O)N[C@H](C(=O)NCC(=O)NCC(=O)N[C@H](C(=O)N[C@H](C(=O)N[C@H](C(=O)N[C@@H](C)C(=O)O)[C@@H](C)CC)C(C)C)C(C)C)C(C)C)[C@@H](C)CC [Aβ17-42] (H-LVFFAEDVGSNKGAIIGLMVGGVVIA-OH; N-terminus and C-terminus assumed)
Solubility [2]: very insoluble

CC[C@H](C)[C@H](NC(=O)[C@H](C)NC(=O)CNC(=O)[C@H](CCCCN)NC(=O)[C@H](CC(N)=O)NC(=O)[C@H](CO)NC(=O)CN)C(=O)N[C@H](C(=O)NCC(=O)N[C@@H](CC(C)C)C(=O)N[C@@H](CCSC)C(=O)O)[C@@H](C)CC [Aβ25-35] (H-GSNKGAIIGLM-OH; N-terminus and C-terminus assumed)
Solubility [2]: soluble

c1ccc([I+]c2ccccc2)cc1 [DPI, diphenyl iodonium]
protection against microglia-mediated neuron killing [1]: no reduction of microglia-mediated neuron killing; also recorded: No protective effects were observed

N[C@H](CCC(=O)NCS(=O)(=O)O)C(=O)O [GAMS]
protection against microglia-mediated neuron killing [1]: did not

CC(=N)NCCC[C@H](N)C(=O)O.Cl [L-NIO, L-N-5-(1-imin-oethyl)ornithine hydrochloride]
protection against microglia-mediated neuron killing ([1]; hydrochloride): no reduction of microglia-mediated neuron killing; also recorded: No protective effects were observed

C[C@]12N[C@H](Cc3ccccc31)c1ccccc12 [MK-801]
blockade of NTox killing effect [3]: could be blocked
protection against microglia-mediated neuron killing [1]: prevented neuronal loss
protection against microglia-mediated neuron killing ([1]; listed as MK801): blocked neuron death

CCN(CC)CCCC(C)Nc1ccnc2cc(Cl)ccc12 (stereo not drawn) [chloroquine]
prevention of neurotoxic microglia, immuno-suppressive drugs ([4]; test concentrations 0.1 to 10 μM): had a protective effect; also recorded: block neuron killing

COc1c(C=O)c(O)cc2c1C(=O)c1ccccc1C2=O [damacanthal]
prevention of neurotoxic microglia, signal transduction inhibitors [4]: had a protective effect

O=c1c(-c2ccc(O)cc2)coc2cc(O)cc(O)c12 [genistein]
prevention of neurotoxic microglia, signal transduction inhibitors [4]: had a protective effect

N[C@@H](CCC(=O)N[C@@H](CS)C(=O)NCC(=O)O)C(=O)O [glutathione]
protection against microglia-mediated neuron killing [1]: no reduction of microglia-mediated neuron killing; also recorded: did not block microglial killing of neurons

CC(C(O)c1ccc(O)cc1)N1CCC(Cc2ccccc2)CC1 (stereo not drawn) [ifenprodil]
protection against microglia-mediated neuron killing [1]: prevented neuronal loss; also recorded: blocked neuron death

NCCc1ccc(O)cc1 [tyramine]
protection of neurons against quinolinic acid (neurons; 100 μM quinolinic acid (QUIN)): protective effect did not occur; also recorded: did not block
protection of neurons against NTox / Aβ1-42-stimulated microglia (neurons; microglia stimulated with Aβ1-42 or isolated NTox applied to neurons): prevented neuronal injury; also recorded: did not damage neurons in the presence of tyramine

SpheresAβ1-42: Aβ1-42 coupled to microspheres
uptake of peptide-coupled microspheres by microglia in culture (rat microglia): rapidly engulfed by cultured microglia
reactive microglia around implanted microspheres (brain neocortex; 250 micron spheres, weeks after implantation): chronically stimulate the presence of reactive cells
increase in scavenger receptor II mRNA in tissue surrounding implant (brain neocortex; two weeks after implantation, vs undamaged control tissue or SphereBSA): 5 fold
capacity to elicit neurotoxic microglia, coupled to microspheres or in solution ([5]; 250,000 microspheres per culture, 100,000 microglia per culture, 72 hour incubation): induced neuron killing

catalase
protection against microglia-mediated neuron killing [1]: no reduction of microglia-mediated neuron killing; also recorded: did not block microglial killing of neurons

chondroitin sulfate
SpheresAβ1-42 binding to microglia in presence of GAGs or scavenger receptor ligands (microglia): not similar compounds; also recorded: only heparin sulfate blocked

dextran sulfate
Spheresmal-BSA binding to microglia in presence of ligands (scavenger receptors; dextran sulfate 500 μg/ml, ac-LDL 200 μg/ml, Aβ1-16 10 μmole/l): blocked Spheresmal-BSA binding
SpheresAβ1-42 binding to microglia in presence of GAGs or scavenger receptor ligands (microglia): not similar compounds
SpheresAβ1-42 binding to microglia in presence of GAGs or scavenger receptor ligands (microglia; listed as dextm sulfate): only heparin sulfate blocked

heparin sulfate
SpheresAβ1-42 binding to microglia in presence of GAGs or scavenger receptor ligands (microglia): reduction of binding; also recorded: blocked SpheresAβ1-42 binding
SpheresAβ1-42 binding to microglia in presence of GAGs or scavenger receptor ligands (microglia; listed as heparan sulfate): block Aβ binding to microglia

rodent Aβ1-42: rodent form of Aβ1-42 (DAEFGHDSGFEVRHQKLVFFAEDVGSNKGAIIGLMVGGVVIA; Amyloid-beta protein 42; UniProt P12023 672-713, looked up, fragment)
induction of neurotoxic microglia / neuron killing in presence of microglia ([5]; peptide in solution, typically 1 μmole/l, 72 hours, microglia 500 per mm^2): does not induce toxicity

trypsin
Spheresmal-BSA binding after enzymatic pre-treatment of microglia (scavenger receptors; [6]): reduced
SpheresAβ1-42 binding after enzymatic pre-treatment of microglia (microglia; [6]): reduced

vitamin E
protection against microglia-mediated neuron killing [1]: no reduction of microglia-mediated neuron killing; also recorded: did not block microglial killing of neurons
